{
  "source": "patent US20230364009A1",
  "about": "“Implantable Medical Device for the Delivery of an Antipsychotic” (Celanese EVA Performance Polymers LLC, priority 2022, published 2023)",
  "origin": "cited, not measured here",
  "key": {"β1 adrenergic receptors": {"target": "β1 adrenergic receptors (Homo sapiens, UniProt P08588)", "sequence (P08588 whole entry)": "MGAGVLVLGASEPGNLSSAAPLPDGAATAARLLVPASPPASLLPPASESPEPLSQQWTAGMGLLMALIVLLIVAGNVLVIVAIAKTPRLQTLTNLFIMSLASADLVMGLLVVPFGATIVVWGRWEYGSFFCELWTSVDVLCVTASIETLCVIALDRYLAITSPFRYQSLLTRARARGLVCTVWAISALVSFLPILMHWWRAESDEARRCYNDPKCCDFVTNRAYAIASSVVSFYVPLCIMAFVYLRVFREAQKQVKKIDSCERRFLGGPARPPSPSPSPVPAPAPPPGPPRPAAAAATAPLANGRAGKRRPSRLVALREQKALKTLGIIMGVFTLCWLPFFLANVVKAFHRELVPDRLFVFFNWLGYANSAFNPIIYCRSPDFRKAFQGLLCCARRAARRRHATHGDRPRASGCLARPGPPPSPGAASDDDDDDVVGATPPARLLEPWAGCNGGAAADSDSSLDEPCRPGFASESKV"}, "β2 adrenergic receptors": {"target": "β2 adrenergic receptors (Homo sapiens, UniProt P07550)", "sequence (P07550 whole entry)": "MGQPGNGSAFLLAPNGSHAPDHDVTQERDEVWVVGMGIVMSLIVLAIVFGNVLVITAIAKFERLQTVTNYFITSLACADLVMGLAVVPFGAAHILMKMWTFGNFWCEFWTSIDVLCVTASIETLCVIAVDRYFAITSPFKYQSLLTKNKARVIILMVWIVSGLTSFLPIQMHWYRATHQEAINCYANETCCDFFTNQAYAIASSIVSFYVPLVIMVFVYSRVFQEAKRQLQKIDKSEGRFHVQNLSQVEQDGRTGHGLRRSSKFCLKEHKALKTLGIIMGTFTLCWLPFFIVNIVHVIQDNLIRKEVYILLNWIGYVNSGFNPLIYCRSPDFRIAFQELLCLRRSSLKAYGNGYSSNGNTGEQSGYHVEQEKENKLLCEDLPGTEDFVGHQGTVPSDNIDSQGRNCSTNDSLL"}, "[1]": {"target": "T1, serotonin 5HT1A receptors (Homo sapiens, UniProt P08908)", "T1 sequence (P08908 1-422)": "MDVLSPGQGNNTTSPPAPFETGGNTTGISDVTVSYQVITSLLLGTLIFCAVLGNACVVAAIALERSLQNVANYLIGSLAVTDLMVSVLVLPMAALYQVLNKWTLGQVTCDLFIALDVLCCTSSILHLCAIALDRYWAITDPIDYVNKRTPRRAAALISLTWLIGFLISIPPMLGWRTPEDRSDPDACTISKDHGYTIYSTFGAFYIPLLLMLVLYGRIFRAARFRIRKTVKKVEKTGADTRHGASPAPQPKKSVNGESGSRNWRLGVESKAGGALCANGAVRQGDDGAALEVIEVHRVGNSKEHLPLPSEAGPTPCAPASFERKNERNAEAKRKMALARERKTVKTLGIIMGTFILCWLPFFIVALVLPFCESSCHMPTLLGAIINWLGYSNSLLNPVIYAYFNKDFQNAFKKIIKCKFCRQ"}, "dopamine D1": {"target": "dopamine D1 (Homo sapiens, UniProt P21728)", "sequence (P21728 whole entry)": "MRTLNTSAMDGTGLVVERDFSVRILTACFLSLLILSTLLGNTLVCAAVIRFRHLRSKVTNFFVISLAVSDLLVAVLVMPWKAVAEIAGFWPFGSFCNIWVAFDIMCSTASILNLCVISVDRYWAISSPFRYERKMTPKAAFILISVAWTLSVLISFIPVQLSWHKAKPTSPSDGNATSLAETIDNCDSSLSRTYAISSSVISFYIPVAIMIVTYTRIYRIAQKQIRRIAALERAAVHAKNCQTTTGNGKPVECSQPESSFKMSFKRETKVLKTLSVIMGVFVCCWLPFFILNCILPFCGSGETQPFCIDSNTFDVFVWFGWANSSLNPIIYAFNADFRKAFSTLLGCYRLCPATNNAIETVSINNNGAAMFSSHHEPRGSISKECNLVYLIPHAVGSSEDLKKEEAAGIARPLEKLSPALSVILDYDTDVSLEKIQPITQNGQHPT"}, "[2]": {"test_system": "haloperidol-sensitive sigma site"}, "[3]": {"target": "dopamine Type 2 (D2) receptors (Homo sapiens, UniProt P14416)", "sequence (P14416 whole entry)": "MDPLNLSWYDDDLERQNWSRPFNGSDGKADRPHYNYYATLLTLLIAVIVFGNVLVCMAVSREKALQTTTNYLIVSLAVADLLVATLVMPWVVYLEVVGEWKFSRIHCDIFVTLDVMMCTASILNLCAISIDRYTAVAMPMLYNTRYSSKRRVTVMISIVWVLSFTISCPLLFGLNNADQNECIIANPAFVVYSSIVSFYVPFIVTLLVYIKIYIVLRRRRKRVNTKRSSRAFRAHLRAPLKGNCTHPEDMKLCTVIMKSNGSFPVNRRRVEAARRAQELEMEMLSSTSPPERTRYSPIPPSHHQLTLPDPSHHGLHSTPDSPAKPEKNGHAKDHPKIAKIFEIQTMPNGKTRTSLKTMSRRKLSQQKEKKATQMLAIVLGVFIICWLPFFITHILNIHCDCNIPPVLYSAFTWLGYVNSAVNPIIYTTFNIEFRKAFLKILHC"}, "[4]": {"target": "serotonin 5HT1D receptors (Homo sapiens, UniProt P28221)", "sequence (P28221 whole entry)": "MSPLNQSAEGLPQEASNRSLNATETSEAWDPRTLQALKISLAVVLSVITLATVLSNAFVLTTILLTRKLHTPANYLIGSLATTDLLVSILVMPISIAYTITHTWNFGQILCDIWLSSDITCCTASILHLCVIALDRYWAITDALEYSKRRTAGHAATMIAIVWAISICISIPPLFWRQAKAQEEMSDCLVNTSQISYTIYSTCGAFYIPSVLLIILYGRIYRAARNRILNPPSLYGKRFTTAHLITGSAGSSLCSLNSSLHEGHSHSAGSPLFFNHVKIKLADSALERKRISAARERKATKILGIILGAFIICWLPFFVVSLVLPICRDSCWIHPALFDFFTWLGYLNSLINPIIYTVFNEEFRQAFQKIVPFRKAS"}, "[5]": {"target": "T2, serotonin 5HT1c receptors (Homo sapiens, UniProt P28335)", "T2 sequence (P28335 33-458)": "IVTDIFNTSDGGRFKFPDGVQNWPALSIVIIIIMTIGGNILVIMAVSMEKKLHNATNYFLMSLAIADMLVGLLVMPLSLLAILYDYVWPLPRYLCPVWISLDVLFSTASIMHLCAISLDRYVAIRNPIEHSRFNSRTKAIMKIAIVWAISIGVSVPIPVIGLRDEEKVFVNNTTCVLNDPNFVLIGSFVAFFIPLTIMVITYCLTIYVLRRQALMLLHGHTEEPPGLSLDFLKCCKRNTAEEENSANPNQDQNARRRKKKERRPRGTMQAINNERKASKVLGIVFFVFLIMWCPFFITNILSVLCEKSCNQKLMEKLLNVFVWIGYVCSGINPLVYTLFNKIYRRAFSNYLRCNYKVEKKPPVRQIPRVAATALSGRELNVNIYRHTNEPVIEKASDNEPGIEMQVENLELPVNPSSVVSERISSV"}},
  "data": [
    {"smiles": "Cc1nc2n(c(=O)c1CCN1CCC(c3noc4cc(F)ccc34)CC1)CCCC2", "note": "[Risperidone, risperidone]", "values": [
      {"measurement": "affinity", "setting": "β1 adrenergic receptors", "result": "no affinity"},
      {"measurement": "affinity", "setting": "β2 adrenergic receptors", "result": "no affinity"},
      {"measurement": "affinity", "setting": "α2 adrenergic receptors", "result": "high affinity"},
      {"measurement": "affinity", "setting": "[1]", "result": "low to moderate affinity"},
      {"measurement": "affinity", "setting": "dopamine D1", "result": "weak affinity"},
      {"measurement": "affinity", "setting": "[2]", "result": "weak affinity"},
      {"measurement": "affinity", "setting": "α1 adrenergic receptors", "result": "high affinity"},
      {"measurement": "affinity", "setting": "[3]", "result": "high affinity"},
      {"measurement": "affinity", "setting": "[4]", "result": "low to moderate affinity"},
      {"measurement": "affinity", "setting": "[5]", "result": "low to moderate affinity"}
    ]}
  ]
}
